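The compound was tested at five concentrations on cells cultured in 96-well plates, with a 48-hour exposure period. GI50 = concentration required for 50% inhibition of growth.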 Active and inactive are the calls of the source. Rule as the data show it: active = GI50 up to about 1.1 µM and inactive = higher.
Assays:
Assay in all cases: NCI-60 cell line screen, 48 h
[1] = tested on: MDA-MB-231
[2] = tested on: SNB-19
[3] = tested on: NCI/ADR-RES
[4] = tested on: CCRF-CEM
[5] = tested on: T47D
[6] = tested on: UACC-62
[7] = tested on: RPMI-8226
[8] = tested on: SK-MEL-2
[9] = tested on: HL-60
[10] = tested on: DU-145
[11] = tested on: MDA-MB-435
[12] = tested on: CAKI-1
[13] = tested on: MCF7
[14] = tested on: NCI-H460
[15] = tested on: U-251
[16] = tested on: A498
[17] = tested on: SF-539
[18] = tested on: UO-31
[19] = tested on: SF-295

Measured: GI50

CN1C(=O)C(C(N)=O)C2CC1(C)Oc1ccccc12 (stereo not drawn)
inactive: [1] > 100 µM | [2] > 100 µM | [3] > 100 µM | [4] > 100 µM | [5] > 100 µM | [6] > 100 µM | [7] > 100 µM | [8] > 100 µM | [9] > 100 µM | [10] > 100 µM | [11] > 100 µM | [12] > 100 µM | [13] > 100 µM | [14] > 100 µM | [15] > 100 µM | [16] > 100 µM

CC(C)Oc1ccc(CNC2=NCCO2)c2ccccc12
inactive: [1] 14.5 µM | [2] 7.74 µM | [3] 12.3 µM | [4] 13.3 µM | [17] 9.66 µM | [5] 11.9 µM | [6] 15.3 µM | [18] 5.24 µM | [19] 13.7 µM | [7] 9.77 µM | [9] 8.63 µM | [10] 18.2 µM | [11] 10.9 µM | [13] 14.1 µM | [14] 12.4 µM | [15] 13.6 µM | [16] 10.2 µM

CC(=O)Nc1ccc(C(=O)NN2C(=O)CSC2c2ccccc2)cc1 (stereo not drawn)
inactive: [1] > 100 µM | [2] > 100 µM | [3] > 100 µM | [4] > 100 µM | [17] > 100 µM | [5] > 100 µM | [6] > 100 µM | [18] > 100 µM | [19] > 100 µM | [7] > 100 µM | [8] 69.5 µM | [10] > 100 µM | [11] > 100 µM | [13] > 100 µM | [14] > 100 µM | [15] > 100 µM | [16] > 100 µM

CCc1nn(S(=O)(=O)c2ccc(C)cc2)c2c1CS(=O)(=O)CC2
inactive: [1] > 100 µM | [2] > 100 µM | [3] 38.1 µM | [17] 91.4 µM | [5] > 100 µM | [6] > 100 µM | [18] > 100 µM | [19] 66.8 µM | [7] > 100 µM | [8] > 100 µM | [10] > 100 µM | [11] > 100 µM | [12] > 100 µM | [13] > 100 µM | [14] > 100 µM | [15] > 100 µM | [16] > 100 µM

O=NN1C(c2ccccc2)CC(=NO)CC1c1ccccc1 (stereo not drawn)
inactive: [1] > 100 µM | [2] > 100 µM | [3] > 100 µM | [17] > 100 µM | [5] > 100 µM | [6] > 100 µM | [18] > 100 µM | [19] > 100 µM | [7] 68.1 µM | [8] 6.65 µM | [9] 74.5 µM | [10] > 100 µM | [11] > 100 µM | [12] 68.4 µM | [13] > 100 µM | [14] > 100 µM | [15] > 100 µM

COC1=C(OC)C(=O)C(C/C=C/c2c(Cl)nc3sccn23)=C(C)C1=O
inactive: [1] 7.67 µM | [2] 14.1 µM | [3] 5.58 µM | [4] 1.85 µM | [17] 17.2 µM | [5] 7.74 µM | [6] 14.5 µM | [18] 18.7 µM | [19] 2.1 µM | [7] 4.35 µM | [8] 16.4 µM | [10] 18.5 µM | [11] 9.16 µM | [12] 12.2 µM | [13] 5.19 µM | [14] 17.9 µM | [15] 5.87 µM | [16] 22.2 µM

Cc1cc(C)nc(NS(=O)(=O)c2ccc(NC(=O)c3ccc4nc5ccccc5c(Nc5ccc(S(=O)(=O)N=C(N)N)cc5)c4c3)cc2)n1
inactive: [1] > 100 µM | [2] > 100 µM | [3] > 100 µM | [4] 68.5 µM | [17] > 100 µM | [5] > 100 µM | [6] > 100 µM | [18] > 100 µM | [19] > 100 µM | [7] > 100 µM | [8] > 100 µM | [9] > 100 µM | [10] > 100 µM | [11] > 100 µM | [12] > 100 µM | [13] > 100 µM | [14] > 100 µM | [15] > 100 µM

CCOC(=O)/C=C(/C=C\COC1CCCCO1)c1ccccc1 (stereo not drawn)
inactive: [1] 42.4 µM | [2] 36.5 µM | [3] 24.5 µM | [4] 25.6 µM | [5] 20.8 µM | [6] 24.5 µM | [18] 36 µM | [19] 24.8 µM | [7] 27.5 µM | [8] 55.2 µM | [9] 18.3 µM | [10] 40 µM | [11] 25.2 µM | [12] 33.7 µM | [13] 29 µM | [14] 48.1 µM | [15] 26.1 µM | [16] > 100 µM

Reference: ChEMBL document CHEMBL1201862, “PubChem BioAssay data set” (2004)
